Data reported in patent US7947279B2, “Peptide having hydrolase activity” (The Trustees of Columbia University in the City of New York, priority 2005, dated 2011).
Entries after “also recorded” stand apart in the source; their conditions may differ.

Tests used:
[1] = test system: phospho-CREB at Ser-133; experiment: Phospho-CREB (Ser-133) Western blot in hippocampal cultures; assay type: cell-based, rat; details: LDN 10 μM
Experimental: Western Blotting: Protein levels were assessed using standard procedures. Protein extraction was performed using buffer with and without detergent. For the extraction of protein using detergent, hippocampal tissues and cultured hippocampal neurons (5 DIV) were homogenized in RIPA buffer (50 mM Tris-HCl pH 7.4, 1% Triton X-100, 1% sodium deoxycholate, 0.1% SDS, 150 mM sodium chloride, 10 mM sodium fluoride, 30 mM sodium pyrophosphate, 50 mM sodium orthovanadate) containing 1× complete protease inhibitor (Roche) and 1 mM phenylmethylsulfonyl fluoride (PMSF). For extraction of proteins without detergent, hippocampal extracts were homogenized with disposable dounce homogenizers in buffer A, containing 10 mM HEPES pH 7.3, 300 mM sucrose, protease 1× complete protease inhibitor (Roche) and PMSF. After centrifugation at 10,000×g supernatant proteins were resolved on a 8% or 4-20% gradient Tris-Glycine gel, transferred onto PVDF or nitrocellulose membrane and blocked in 5% skim milk in PBS-Tween 0.1% (PBS-T). Membranes were probed with primary antibodies, and after washing with PBS-T incubated with an appropriate HRP-conjugated secondary antibody. The following antibodies were used: mouse monoclonal anti-ubiquitin (Chemicon), rabbit polyclonal anti-pCREB (Upstate Biotech.), rabbit polyclonal anti-PKA-RIIα (Santa Cruz Biotech. Inc), mouse monoclonal anti-Uch-L1 (Novocastra), monoclonal mouse anti-HA (Santa Cruz Biotech. Inc), and anti-PKA IIα. Detection was performed using HRP-conjugated secondary antibodies (Pierce, Rockford, Ill.). To control loading and transfer, protein immunoreactivities were normalized against total extracellular signal-regulated protein kinases (ERK1/2) levels with a rabbit analyzed using a rabbit polyclonal anti-ERK1/2 antibody (Cell Signaling Technology, Inc). NIH IMAGE was used to analyze the scanned blots and quantify the intensity of the protein signals.
Preparation of Cell Cultures. Hippocampal cell cultures were prepared as previously described (Vitolo et al., 2002). In cell culture experiments fetuses at embryonic day 18 from timed pregnant Sprague-Dawley rats (Taconic Farms) were used. Fetuses were sacrificed and the hippocampi removed. Neurons were then dissociated, plated on 6 well-plates coated with poly-L-lysine and maintained in a defined serum-free medium containing minimum essential medium supplemented with N-2, glucose, albumin, pyruvic acid, antibiotics and antimycotics. […] 5 DIV cells were used for the experiments.

[2] = test system: SY5Y neuroblastoma cells transfected with a degron CL1-GFP expression vector; experiment: Proteasome reporter assay (GFP^u); assay type: cell-based, human; details: substance alone
Experimental: Proteasome reporter assays. In this cell line, human neuroblastoma SH-SY5Y cells were permanently transfected with reporter construct consisting of green fluorescent protein (GFP) conjugated at its C-terminus to a short degron sequence (CL-1) (Gilon et al., 1998). […] The SY5Y-GFP^u cells were grown in 1×DMEM (Invitrogen) supplemented with 15% fetal bovine serum (JRH), 1× penicillin/streptomycin (Gibco). After indicated treatments, GFP^u concentrations were assayed by densitometric analysis of immunoblots of total protein extracts (10 ug/lane) using monoclonal GFP antibodies (Santa Cruz Biotechnology) and visualized with HRP-conjugated secondary antibodies and ECL (Pierce). Loading equalization was normalized by probing blots with anti-ERK antibodies (Santa Cruz Biotechnology).

[3] = test system: CA1-LTP in hippocampal slices; experiment: CA1-LTP in hippocampal slices (theta-burst); assay type: cell-based, mouse
[4] = test system: BST at the Schaffer collateral/CA1 connection of hippocampal slices; experiment: Basal synaptic transmission (BST) in hippocampal slices; assay type: cell-based, mouse
[5] = test system: mice (WT and APP/PS1); experiment: Contextual and cued fear conditioning; assay type: in vivo, mouse; details: for freezing time in contextual learning: at 21 days
Experimental: Behavioral Studies: Fear conditioning was performed in a conditioning chamber as previously described (Bourtchuladze et al., 1994; Gong et al., 2004). For contextual and cued fear conditioning mice were placed in the conditioning chamber for 2 min before the onset of a discrete tone (CS) (a 30 sec sound at 2800 Hz and 85 dB). In the last 2 sec of the CS, mice were given a foot shock (US) of 0.50 mA for 2 sec through the bars of the floor. After the CS/US pairing, the mice were left in the conditioning chamber for another 30 sec and then placed back in their home cages. Freezing behavior, defined as the absence of all movement except for that necessitated by breathing, was scored using Freezeview software. To evaluate contextual fear learning, freezing was measured for 5 min in the chamber in which the mice were trained 24 hrs after training. To evaluate cued fear conditioning, following contextual testing, the mice were placed in a novel context (triangular cage with smooth flat floor and with vanilla odorant) for 2 min (pre-CS test), after which they were exposed to the CS for 3 min (CS test), and freezing was measured. To evaluate the contextual fear over time, mice were placed for 5 min in the chamber in which the mice were trained 7- 14- 21-days after training. Sensory perception of the shock was determined through threshold assessment. Each animal was placed individually into the conditioning chamber. […] Animal behavior was evaluated for the first visible response to the shock (flinch), the first extreme motor response (run/jump), and the first vocalized distress (scream). Threshold to flinching, jumping, and screaming was quantified for each animal by averaging of the shock intensity at which each animal manifested a behavioral response of that type to the foot shock. Visual, motor, and motivation skills were also tested with visible platform training by measuring the time and the speed to reach a visible platform placed within a pool filled with water (Gong et al., 2004). Both time to reach the platform and swimming speed were recorded and analyzed with a video tracking system (HVS-2020, HVS Image, UK). No difference was observed among different groups of mice in the experiments in which fear conditioning was tested both in the presence of LDN and TAT fusion proteins. To decide the time of administration of LDN, experiments were performed in which the inhibitor was injected intra-peritoneally at different intervals (4 hrs before, 1 hr before, 1 hr after and 4 hrs after) from the electric shock. During the training phase, no difference was found in the freezing of LDN- or vehicle-injected mice.

[6] = LDN 5 μM, 15 min, listed as LDN

CC(=O)O/N=C1\C(=O)N(Cc2cc(Cl)ccc2Cl)c2ccc(Cl)cc21 [LDN-57444, reference compound]
phospho-CREB enhancement / beneficial effect of TAT-HA-Uch-L1 [1]: blocked the beneficial effect of TAT-HA-Uch-L1; also recorded: did not allow the enhancement of phospho-CREB | phospho-CREB enhancement / beneficial effect of TAT-HA-Uch-L1 ([1]; listed as LDN): blocked the beneficial effect of TAT-HA-Uch-L1; also recorded: did not allow the enhancement of phospho-CREB | GFP^u levels [2]: much larger increase in GFP | LTP ([3]; LDN 1 μM, 2-4 hr, listed as LDN): has no effect | LTP ([3]; LDN 2.7 μM, 2-4 hr, listed as LDN): reduces CA1-LTP | LTP in Aβ-treated slices ([3]; LDN 5 μM for 2 hrs, 200 nM Aβ, listed as LDN): does not further reduce potentiation; also recorded: did not further reduce LTP | LTP in APP/PS1 slices ([3]; LDN 5 μM for 2 hrs, listed as LDN): does not further reduce potentiation; also recorded: did not further reduce LTP | LTP ([3]; LDN 5 μM, 15 min): did not affect BST or LTP; also recorded: did not affect CA1-LTP | LTP [3, 6]: did not affect basal synaptic transmission (BST) or LTP; also recorded: did not affect CA1-LTP | LTP ([3]; LDN 5 μM, 2 hrs): blocked | LTP ([3]; LDN 5 μM, 2 hrs, listed as LDN): diminished LTP; also recorded: reduced | LTP ([3]; LDN 5 μM, 4 hrs): strongly reduced | LTP ([3]; LDN 5 μM, 4 hrs, listed as LDN): reduced both; also recorded: strongly reduced | LTP ([3]; LDN-57444, 2 hour exposure): approximately 70 % of vehicle treated slices | LTP ([3]; LDN-57444, 4 hour exposure): ~65 % of vehicle treated slices | baseline transmission in slices without tetanic stimulation ([3]; non-tetanized slices): did not affect baseline transmission | BST ([4]; LDN 2.7 μM and 1 μM, 2-4 hr, listed as LDN): normal BST; also recorded: did not affect CA1-BST | BST ([4]; LDN 5 μM, 15 min): did not affect BST or LTP; also recorded: did not affect CA1-BST | BST [4, 6]: did not affect basal synaptic transmission (BST) or LTP; also recorded: does not affect CA1-BST | BST ([4]; LDN 5 μM, 2 hrs): without affecting BST; also recorded: not affected | BST ([4]; LDN 5 μM, 2 hrs, listed as LDN): without affecting BST; also recorded: not affected | BST ([4]; LDN 5 μM, 4 hrs): strongly reduced | BST ([4]; LDN 5 μM, 4 hrs, listed as LDN): reduced both; also recorded: strongly reduced | BST ([4]; LDN-57444, 4 hour exposure): approximately 40 % of vehicle treated slices | cued fear conditioning ([5]; LDN 0.4 mg/kg i.p.): did not show a difference | freezing time in contextual conditioning ([5]; LDN 0.4 mg/kg i.p. 4 hrs after the electric shock, twenty-four hours later): 74 % of that of vehicle-treated mice | freezing time in contextual learning ([5]; LDN 0.4 mg/kg i.p.): about 70 % of vehicle-treated mice | freezing time in contextual learning ([5]; LDN 0.4 mg/kg i.p., listed as LDN): 70 % of vehicle-treated mice | contextual conditioning performance ([5]; LDN 0.4 mg/kg i.p., context at 1, 7, 14 and 21 days after training): worsened contextual conditioning performance | contextual learning ([5]; LDN injected at 4 and 1 hour before the shock or at 1 hour after the shock): failed to impair contextual learning | freezing during the training phase ([5]; LDN- versus vehicle-injected mice): no difference
